Experimental data reported in patent US20240188568A1, “ENVIRONMENTALLY FRIENDLY COMPOSITIONS AND METHODS OF THEIR USE FOR PROMOTING THE GROWTH OF TURFGRASS OVER WEEDS” (Edaphix, LLC, priority 2021, published 2024).

Experiments:
chlorophyllitic plants = conditions: as little as; cited from earlier work
seed geranium = conditions: in combination with nitrogen, phosphorus, and potassium; Lee and others (1996); cited from earlier work
[1] = 2005 carcinogen assessment guidelines; cited from earlier work
French marigold = conditions: Jong et al. (1996); cited from earlier work
perennial grasses = experiment: Turfgrass test plots, Bozeman, MT: healthy perennial grass cover and turf stress; type: in vivo; conditions: healthy perennial grass cover averaged over each treatment category, 21 months (Table 3)
Description: (§1) Initially, a series of small turfgrass test plots was studied to gather preliminary information that helped guide the establishment of this larger, long-term study involving multiple rates and formulations. The test plots of this experiment were established in a weedy turfgrass location within the Bridger Creek Subdivision Community Association, Phase 1, Section 31, Township 1 South, Range 6 East, P.M.M., City of Bozeman, Gallatin County, Montana. The experimental site was established in a location with approximately 20 inches of annual precipitation, with annual maximum precipitation amounts observed in May and June. Winter conditions with frozen ground prevail during approximately 5 months of the year (November-March). Soils have high organic matter content in the upper six inches and are underlain by floodplain gravels and a water table 3-15 feet below ground surface. […]
(§2) The plots were typically 50 square feet (FIG. 1). Vegetation cover measurements were made using a frame placed on the turf and an estimate was calculated for the proportion of perennial grasses and weeds in each frame (FIG. 2). […] Since installation of the first plots, they have been monitored 5 times over a period of 21 months for vegetation cover. […]
The boron-only plots caused turf stress and yellowing. Immediately following application in monitoring, healthy and unhealthy/stressed turf was measured based on tissue color. […]

turf weeds = experiment: Turfgrass test plots, Bozeman, MT: weed cover; type: in vivo
Description: as §1, with “surface. The primary turf weeds at this location in their order of relative prevalence are clover, dandelion, creeping Charlie, oxeye daisy, black medic and Canadian thistle.” for “surface.”
as §2

For `O=C(O)CNCP(=O)(O)O` [glyphosate], the “application rate effective at causing photosynthetic disruption” value (chlorophyllitic plants) is listed as 0.75 pounds active ingredient per acre.
In the case of `[Cu]` [Cu, copper], the “concentration of nutrient solution inducing micronutrient toxicity symptoms” value (seed geranium) is listed as 500 ng/mL.
In the case of borate salts, the “U.S. EPA carcinogenicity classification” value [1] is listed as “not likely to be carcinogenic to humans”.
In the case of `[B]` [boron], the “concentration inducing micro-nutrient toxicity” value (French marigold) is given as 500 ng/mL and the “concentration of nutrient solution inducing micronutrient toxicity symptoms” value (seed geranium) is given as 500 ng/mL.
With `O=C(O)COc1ccc(Cl)cc1Cl` [2-4 D, 2,4-Dichlorophenoxyacetic acid] the “Average Percent Ground Cover For 21-Month Monitoring Period, Turf Grass” value (perennial grasses) was 80%, the “weed cover, typical” value (turf weeds; typical value over the first 2 years of monitoring (FIG. 3), control about 50%) was roughly 20% and the “Average Percent Ground Cover For 21-Month Monitoring Period, Weeds” value (turf weeds; weed cover averaged over each treatment category, 21 months (Table 3)) was 13%.
For `[Mo]` [Mo, molybdenum], the “concentration of nutrient solution inducing micronutrient toxicity symptoms” value (seed geranium) is given as 250 ng/mL.
For `[Zn]` [Zn, zinc], the “concentration of nutrient solution inducing micronutrient toxicity symptoms” value (seed geranium) is given as 500 ng/mL.
In the case of `OB(O)O` [boric acid], the “U.S. EPA carcinogenicity classification” value [1] is listed as “not likely to be carcinogenic to humans”.
